Some results are limits rather than exact numbers.

For the experiment, the system named is algae sample. Description: preservation of an algae sample in a preserving solution. Details: species or system algae (e.g., sugar kelp, ribbon kelp, bull kelp, brown alga). The note with it: for preservation of the algae by the preserving solution: for the target preserving duration; for critical preservation solution concentration: temperature excursions between 0° F. and 140° F., wet mass basis relative to algae mass. An excerpt:
The critical preservation solution concentration can depend on the amount of time the algae sample is to be preserved for, a preservation temperature, an algae species (or other taxonomical rank such as phylum, class, order, family, genus, intermediate ranks therebetween associated with the algae), humidity, moisture content, wet mass content of the algae sample (e.g., composition of the wet mass of the algae sample), dry mass content of the algae sample (e.g., composition of the dry mass of the algae sample), and/or other suitable. […] However, other critical values can be determined and/or arrived at (e.g., by controlling temperature excursions particularly high temperature range, for different types of algae, using a mixture of preserving agents to reduce the concentration of any single preserving agent, based on the amount of time to preserve the algae, etc.).
Preserving the received algae sample S300 preferably functions to extend a lifetime of the algae sample without significant degradation of the algae sample and/or products thereof or derived therefrom. S300 can preserve an as received algae sample (e.g., from S100, fresh harvested algae sample, etc.), a processed algae sample (e.g., from S200, an algae sample that was received after one or more processing steps such as in S200 or S400 has been performed, etc.), a previously preserved algae sample (e.g., preserved according to S300, preserved in a manner different from S300, dried algae sample, etc.), and/or any suitable algae sample.
The algae sample is typically not agitated (e.g., mixed) during (e.g., throughout) preservation (e.g., to simplify the preservation process). Alternatively stated, the algae sample is preferably mixed at most only once (e.g., at the beginning of S300 to homogenize the preserving solution and algae sample) and remains unmixed thereafter. However, the algae sample can be agitated during preservation (e.g., according to a schedule, at predetermined times, at a predetermined frequency, etc.).
The algae sample is typically preserved at approximately room temperature (e.g., an ambient temperature of an environment the algae sample is stored at). For instance, the algae sample can be preserved at a temperature between about 50° F. to 110° F. However, the algae sample can be stored at an elevated temperature (e.g., >110° F.), at a refrigeration temperature (e.g., 30-50° F.), freezing temperature (e.g., <about 30° F.), and/or at any suitable temperature. In some variants, the preserved algae sample can undergo temperature excursions as cold as about 0° F. and as high as 140° F. However, additionally or alternatively, the temperature can be controlled to within a target temperature range (e.g., a preservation temperature, a preservation temperature excursion range, etc.).
The algae sample is typically not fully sealed during preservation (e.g., evaporation of solvent, preservative, etc. can occur such as because the sample is loosely covered). […] For example, the algae sample can be preserved in a container where a lid is placed on the container to close the container but where the lid need not form a seal (e.g., is not a hermetic lid).

As to `CCO` [alcohol], the “preservation duration before product degradation, mold growth, etc. was detected” value (5% alcohol solution, target about 1 year of preservation) is reported as “about 2 months”. For the same compound, the “preservation of the algae by the preserving solution” value (shortened to “preservation of the algae”) (less than 8% alcohol (e.g., 1%, 3%, 5%)) is “did not preserve the algae”. In addition, the “critical preservation solution concentration” value by setting is: (preserve for 2 months or less) “at least 5 wt %”; (preserve for 12 months or less) “at least 8 wt %”.

On to `O=C([O-])[O-].[Na+].[Na+]` [sodium carbonate], for which the “preservation of the algae” value (less than 9% carbonate (e.g., 5%)) is reported as “did not preserve the algae”. For the same compound, the “critical preservation solution concentration” value (preserve for 2 months or less) is not below 9 wt %.

Regarding benzoate, where the note is “less than 0.5% benzoate (e.g., 0.1%)”, the “preservation of the algae” value is on record as “did not preserve the algae”.

The record behind these values is patent US20240409878A1, “SYSTEM AND METHOD FOR PRESERVING ALGAE” (Macro Oceans Inc., priority 2023, published 2024).
